Results as given in patent US20090215796A1, “Compositions, Kits and Methods for a Titration Schedule for Pardoprunox Compounds” (Solvay Pharmaceuticals B.V., priority 2008, published 2009).

Experiments:
[1] = test system: human subjects; assay: Clinical investigations on pardoprunox hydrochloride (general tolerability); assay type: in vivo
[2] = test system: subjects with PD characterized by motor fluctuations; assay: Safety study S308.3.005, two titration schedules of pardoprunox as adjunctive treatment to L-dopa; assay type: in vivo, human
Method: In this study, primarily a safety study, 62 subjects with PD characterized by motor fluctuations were randomized to one of three different treatment arms, consisting of two pardoprunox treatment arms (total daily dose 0.3-42 mg three times daily [tid]; groups 1 [25 subjects] and 2 [26 subjects]) and one placebo arm [11 subjects]). The study included a seven-week ascending dose period of pardoprunox as adjunctive treatment to L-dopa. The effect of two different titration schedules was investigated on the safety and tolerability profile, as well as the need and time required for L-dopa dose and/or regimen adjustments (see Table 4). The difference between the two pardoprunox groups was in titration steps taken to achieve at the same time the main study dose levels, namely Group 1—weekly, larger dose increments versus Group 2—with every 3 and 4-days smaller dose steps to the same ‘end of week’ pardoprunox main doses. In the group with the more gradual titration more than 92% of the subjects (24 out of 26) reached doses of 18 mg/day or higher, and 65% (17 out of 26 subjects) reached the highest dose level of 42 mg/day.

[3] = target: dopamine D2 receptor (Homo sapiens, UniProt P14416); conditions: cited from earlier work
[4] = test system: subjects with early PD; assay: Double-blind, placebo-controlled proof of principle study S308.2.004, pardoprunox monotherapy; assay type: in vivo, human
Method: In a double-blind, placebo-controlled proof of principle (PoP) study (S308.2.004), the effects of pardoprunox on efficacy, safety and tolerability as monotherapy in early PD were investigated including 138 randomized and treated subjects. Following a fixed-flexible titration period (average length of 24 days), subjects were kept on maintenance dose levels for three weeks (9, 12, 15, 18, 24, 30, 36 or 45 mg/day). Study medication was taken orally three times daily (tid), in the morning, at noon and in the evening, with any missed doses not taken subsequently.
The dose of pardoprunox was progressively titrated from 0.3 mg/day to 9 mg/day according to a predefined schedule within 10 days, and to 30 mg/day within 20 days, by giving single dose unit or a combination of single dose unit. Daily doses were given over the day in the form of three dosage units. Up to the dose of 30 mg/day the titration was based on tolerability only, meaning that every next day (until step 10) or every other day (step 10-14) the dose was to be increased with one step if well-tolerated by the patient (see Table 3). […] From that moment, the patient had to stay on that lower dose level for 2 full days (at least 6 administrations) before trying the higher level again. The first administration of the higher dose had to be done in the morning. For a given titration step only one subsequent second attempt was allowed to reach the higher dose level. In total, three dose adjustments (on different titration steps) were allowed. If patients still could not reach a certain dose level after two sequential attempts and that dose level was below the minimum required dose level of 9 mg/day, they were not allowed to enter the maintenance phase. If a dose level of at least 9 mg/day has already been reached, they were allowed to maintain that dose level for the entire maintenance phase. Patients who reached the 30 mg/day dose could continue to escalate to 45 mg if tolerability allowed, and if further efficacy was expected. […]

[5] = target: T1, 5-HT1A (Homo sapiens, UniProt P08908); conditions: cited from earlier work
T1 sequence (P08908 1-422): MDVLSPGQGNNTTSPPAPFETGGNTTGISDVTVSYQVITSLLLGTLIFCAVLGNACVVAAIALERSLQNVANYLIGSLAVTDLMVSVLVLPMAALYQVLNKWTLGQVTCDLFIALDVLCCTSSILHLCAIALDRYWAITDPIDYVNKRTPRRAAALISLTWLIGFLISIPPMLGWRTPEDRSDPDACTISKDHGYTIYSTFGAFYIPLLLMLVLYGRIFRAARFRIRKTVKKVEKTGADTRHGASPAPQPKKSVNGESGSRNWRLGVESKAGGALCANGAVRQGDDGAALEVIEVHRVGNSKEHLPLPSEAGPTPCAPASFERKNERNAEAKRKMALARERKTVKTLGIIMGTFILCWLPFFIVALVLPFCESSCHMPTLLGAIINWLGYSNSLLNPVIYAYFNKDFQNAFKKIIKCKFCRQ

[6] = test system: early PD patients; assay: First pivotal study S308.3.001, fixed and flexible dose arms versus placebo; assay type: in vivo, human
Method: In the first pivotal study in early PD patients (study S308.3.001), the efficacy and safety of two fixed dose arms of pardoprunox (6 mg/day [n=115; Group 1] and 12 mg/day [n=118; Group 2]), and a flexible dose arm (12-42 mg/day [n=116; Group 3]) was compared to placebo (n=119) (see Table 6 for titration schedules used).

[7] = test system: animal models; conditions: cited from earlier work
[8] = target: dopamine D3 receptor (Homo sapiens, UniProt P35462); conditions: cited from earlier work
dopamine D3 receptor, sequence (P35462 whole entry): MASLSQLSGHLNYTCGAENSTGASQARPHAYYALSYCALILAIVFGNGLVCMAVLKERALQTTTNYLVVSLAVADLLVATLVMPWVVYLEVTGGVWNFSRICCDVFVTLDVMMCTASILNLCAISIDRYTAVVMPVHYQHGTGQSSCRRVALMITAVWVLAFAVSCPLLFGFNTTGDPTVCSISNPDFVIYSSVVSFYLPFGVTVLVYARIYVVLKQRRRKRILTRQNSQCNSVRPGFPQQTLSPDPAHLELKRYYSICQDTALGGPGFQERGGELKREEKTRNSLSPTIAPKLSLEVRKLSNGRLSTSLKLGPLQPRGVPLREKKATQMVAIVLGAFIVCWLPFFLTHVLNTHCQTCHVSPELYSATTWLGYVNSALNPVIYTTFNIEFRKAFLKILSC

dopamine D2 receptor, sequence (P14416 whole entry): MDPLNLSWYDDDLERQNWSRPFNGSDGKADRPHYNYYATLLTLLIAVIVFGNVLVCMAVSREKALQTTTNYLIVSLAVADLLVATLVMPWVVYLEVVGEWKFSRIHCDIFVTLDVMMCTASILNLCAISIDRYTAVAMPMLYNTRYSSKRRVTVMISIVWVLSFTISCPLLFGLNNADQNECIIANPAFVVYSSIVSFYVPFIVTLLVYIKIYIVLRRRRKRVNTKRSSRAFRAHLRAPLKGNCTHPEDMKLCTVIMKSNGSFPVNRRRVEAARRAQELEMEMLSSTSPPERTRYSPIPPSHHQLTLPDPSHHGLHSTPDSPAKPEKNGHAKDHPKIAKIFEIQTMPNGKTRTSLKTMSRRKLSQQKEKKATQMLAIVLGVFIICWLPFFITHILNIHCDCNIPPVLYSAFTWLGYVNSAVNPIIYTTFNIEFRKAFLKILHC

SMILES	tolerability ([1]; clinical investigations)	doses or titration steps not tolerated (defined as causing more than 20% drop outs) ([2]; 0.3-42 mg/day tid)	subjects who terminated the study due to treatment related Adverse Effects ([2]; between 18 and 30 mg/day, group with smaller dose increments (four subjects))	drop-out rate ([2]; group with the larger, weekly dose increments (Group 1) compared with Group 2 and placebo, FIG. 1)	subjects who reached the highest dose level of 42 mg/day ([2]; group with the more gradual titration (Group 2), 17 out of 26 subjects)	drop out rate due to treatment related Adverse Effects ([2]; up to the 18 mg/day dose, group with smaller dose increments)	tolerability ([1]; healthy human subjects)	agonist activity at dopamine D2 receptor [3]	efficacy between subgroups treated with 9-15 mg/day, 18-30 mg/day and >30-45 mg/day ([4]; explorative evaluation, dose/effect plot)	subjects who reached the highest dose level of 45 mg/day ([4]; flexible titration based on tolerability, tid oral)	subjects treated with pardoprunox doses of ≧30 mg/day ([4]; flexible titration based on tolerability, tid oral, maintenance 9-45 mg/day)	agonist activity at 5-HT1A [5]	tolerability ([6]; 6 mg/day fixed dose group versus higher dose groups)	primary outcome measure UPDRS motor score versus placebo ([6]; all active treatment arms: 6 mg/day, 12 mg/day, 12-42 mg/day)	minimum effective dose ([6]; early PD patient population, conclusion from study)	anti-PD effect [7]	antidepressant and anxiolytic efficacy [7]	agonist activity at dopamine D3 receptor [8]
CN1CCN(c2cccc3[nH]c(=O)oc23)CC1.Cl [pardoprunox hydrochloride, 7-(4-methyl)-1-piperazinyl-2(3H)-benzoxazolone hydrochloride]	well tolerated	–	–	–	–	–	–	–	–	–	–	–	–	–	–	–	–	–
CN1CCN(c2cccc3[nH]c(=O)oc23)CC1 [pardoprunox, 7-(4-methyl)-1-piperazinyl-2(3H)-benzoxazolone]	–	no particular doses or titration steps that could not be tolerated	15%	much higher drop-out rate	65%	4%	relatively well tolerated	partial dopamine D2 and D3 receptor agonist	did not provide any clear differences in efficacy	approximately 16%	Approximately 40%	full 5-HT1A agonist activity	better than that of the higher dose groups	statistically superior to placebo	< 12 mg/day	marked and long-lasting anti-PD effect	evidence of antidepressant and anxiolytic efficacy	partial dopamine D2 and D3 receptor agonist
